Reference: ChEMBL document CHEMBL5260845, “Flavone-based arylamides as potential anticancers: Design, synthesis and in vitro cell-based/cell-free evaluations” (2020)
Each block holds one compound with its values, some of them ahead of it. The source made the active and inactive calls. The calls are words filed in the database; no cut-off is given here.

Experiments:
[1] = target: Death-associated protein kinase 2 (Homo sapiens) (UniProt Q9UIK4); test: Inhibition of DAPK2 (unknown origin) at 10 uM by biochemical hotspot kinase assay relative to control
[2] = target: Serine/threonine-protein kinase pim-1 (Homo sapiens) (UniProt P11309); test: Inhibition of PIM1 (unknown origin) at 10 uM by biochemical hotspot kinase assay relative to control
Serine/threonine-protein kinase pim-1 (Homo sapiens), sequence (P11309 whole entry, looked up): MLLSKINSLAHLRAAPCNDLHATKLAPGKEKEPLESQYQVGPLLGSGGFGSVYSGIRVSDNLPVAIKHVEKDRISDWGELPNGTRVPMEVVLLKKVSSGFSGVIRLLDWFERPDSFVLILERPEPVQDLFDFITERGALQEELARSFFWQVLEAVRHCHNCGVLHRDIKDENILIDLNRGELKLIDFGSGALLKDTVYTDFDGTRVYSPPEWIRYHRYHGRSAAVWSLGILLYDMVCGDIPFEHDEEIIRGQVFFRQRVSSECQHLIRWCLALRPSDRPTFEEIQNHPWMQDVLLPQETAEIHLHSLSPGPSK

[3] = target: Serine/threonine-protein kinase 17A (Homo sapiens) (UniProt Q9UEE5); test: Inhibition of DRAK1 (unknown origin) at 10 uM by biochemical hotspot kinase assay relative to control
Serine/threonine-protein kinase 17A (Homo sapiens), sequence (Q9UEE5 whole entry): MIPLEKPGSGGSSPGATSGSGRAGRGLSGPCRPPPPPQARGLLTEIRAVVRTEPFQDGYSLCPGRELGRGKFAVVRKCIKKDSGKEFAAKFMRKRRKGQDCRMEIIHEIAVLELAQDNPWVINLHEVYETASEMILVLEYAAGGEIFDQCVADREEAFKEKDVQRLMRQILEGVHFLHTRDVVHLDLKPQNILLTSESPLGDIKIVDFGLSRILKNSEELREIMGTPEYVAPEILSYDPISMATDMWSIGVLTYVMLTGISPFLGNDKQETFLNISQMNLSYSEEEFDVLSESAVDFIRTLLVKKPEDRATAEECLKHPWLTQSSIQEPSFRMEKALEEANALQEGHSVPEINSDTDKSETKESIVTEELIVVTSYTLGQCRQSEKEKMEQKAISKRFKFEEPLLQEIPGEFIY

[4] = target: Death-associated protein kinase 1 (Homo sapiens) (UniProt P53355); test: Inhibition of DAPK1 (unknown origin) at 10 uM by biochemical hotspot kinase assay
[5] = target: Angiopoietin-1 receptor (Homo sapiens) (UniProt Q02763); test: Inhibition of TIE2 (unknown origin) at 10 uM by biochemical hotspot kinase assay relative to control
[6] = target: Vascular endothelial growth factor receptor 3 (Homo sapiens) (UniProt P35916); test: Inhibition of VEGFR3 (unknown origin) at 10 uM by biochemical hotspot kinase assay relative to control
Vascular endothelial growth factor receptor 3 (Homo sapiens), sequence (P35916 whole entry): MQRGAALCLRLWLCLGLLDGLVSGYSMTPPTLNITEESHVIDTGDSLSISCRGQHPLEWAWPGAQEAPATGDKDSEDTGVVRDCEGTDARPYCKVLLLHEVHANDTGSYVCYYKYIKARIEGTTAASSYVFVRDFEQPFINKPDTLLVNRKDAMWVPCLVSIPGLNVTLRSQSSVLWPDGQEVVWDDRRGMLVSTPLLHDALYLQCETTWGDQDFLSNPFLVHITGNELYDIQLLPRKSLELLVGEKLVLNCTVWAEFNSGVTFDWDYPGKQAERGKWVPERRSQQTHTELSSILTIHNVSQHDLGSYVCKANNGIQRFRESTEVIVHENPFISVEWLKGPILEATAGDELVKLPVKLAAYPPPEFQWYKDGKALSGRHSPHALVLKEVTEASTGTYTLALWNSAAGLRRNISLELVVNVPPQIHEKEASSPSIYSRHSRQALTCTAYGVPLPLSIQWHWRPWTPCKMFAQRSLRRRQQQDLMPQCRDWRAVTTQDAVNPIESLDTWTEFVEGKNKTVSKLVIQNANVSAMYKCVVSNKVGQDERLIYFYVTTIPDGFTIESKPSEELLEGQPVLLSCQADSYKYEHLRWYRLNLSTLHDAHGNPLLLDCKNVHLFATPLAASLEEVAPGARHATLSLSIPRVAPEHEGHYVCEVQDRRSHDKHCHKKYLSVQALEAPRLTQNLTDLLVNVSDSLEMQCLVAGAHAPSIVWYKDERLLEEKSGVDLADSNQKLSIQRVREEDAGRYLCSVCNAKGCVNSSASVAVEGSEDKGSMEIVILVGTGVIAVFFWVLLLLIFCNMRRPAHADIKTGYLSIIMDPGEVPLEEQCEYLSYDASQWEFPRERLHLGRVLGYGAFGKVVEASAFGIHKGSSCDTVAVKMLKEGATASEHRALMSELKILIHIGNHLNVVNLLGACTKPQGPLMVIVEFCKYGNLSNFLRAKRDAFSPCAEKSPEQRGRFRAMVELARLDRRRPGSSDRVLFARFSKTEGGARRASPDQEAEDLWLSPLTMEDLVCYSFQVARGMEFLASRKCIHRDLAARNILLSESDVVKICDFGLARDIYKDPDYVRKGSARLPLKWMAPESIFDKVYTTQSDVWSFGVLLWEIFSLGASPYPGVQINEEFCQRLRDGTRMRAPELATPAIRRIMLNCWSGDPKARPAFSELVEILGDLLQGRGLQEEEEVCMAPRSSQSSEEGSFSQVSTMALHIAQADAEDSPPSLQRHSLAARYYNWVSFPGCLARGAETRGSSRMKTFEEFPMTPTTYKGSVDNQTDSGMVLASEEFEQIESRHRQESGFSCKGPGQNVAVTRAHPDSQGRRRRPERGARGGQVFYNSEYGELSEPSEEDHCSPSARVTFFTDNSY

HT-29 [7] = test: Induction of cell cycle arrest in human HT-29 cells assessed as accumulation of cells at G1 phase at 2.5 uM incubated for 24 hrs by PI staining based analysis (reference value: 40.3%); assay type: functional
[8] = target: Mitogen-activated protein kinase 14 (Homo sapiens) (UniProt Q16539); test: Inhibition of p38a (unknown origin) at 10 uM by biochemical hotspot kinase assay
Mitogen-activated protein kinase 14 (Homo sapiens), sequence (Q16539 whole entry): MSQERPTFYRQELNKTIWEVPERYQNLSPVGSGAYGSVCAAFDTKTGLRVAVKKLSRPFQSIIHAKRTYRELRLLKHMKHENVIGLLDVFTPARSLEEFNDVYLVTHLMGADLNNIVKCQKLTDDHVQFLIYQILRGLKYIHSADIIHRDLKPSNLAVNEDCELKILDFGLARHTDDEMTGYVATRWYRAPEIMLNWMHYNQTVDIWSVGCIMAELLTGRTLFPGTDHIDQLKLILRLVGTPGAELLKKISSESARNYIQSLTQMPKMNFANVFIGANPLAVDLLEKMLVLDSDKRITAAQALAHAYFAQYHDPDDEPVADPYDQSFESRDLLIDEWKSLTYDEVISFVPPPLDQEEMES

CAKI-1 = test: Antiproliferative activity against human CAKI-1 cells assessed as inhibition of cell growth at 10 uM by SRB assay relative to control; assay type: functional
[9] = target: Mitogen-activated protein kinase kinase kinase 8 (Homo sapiens) (UniProt P41279); test: Inhibition of MAP3K8 (unknown origin) at 10 uM by biochemical hotspot kinase assay relative to control
Mitogen-activated protein kinase kinase kinase 8 (Homo sapiens), sequence (P41279 whole entry): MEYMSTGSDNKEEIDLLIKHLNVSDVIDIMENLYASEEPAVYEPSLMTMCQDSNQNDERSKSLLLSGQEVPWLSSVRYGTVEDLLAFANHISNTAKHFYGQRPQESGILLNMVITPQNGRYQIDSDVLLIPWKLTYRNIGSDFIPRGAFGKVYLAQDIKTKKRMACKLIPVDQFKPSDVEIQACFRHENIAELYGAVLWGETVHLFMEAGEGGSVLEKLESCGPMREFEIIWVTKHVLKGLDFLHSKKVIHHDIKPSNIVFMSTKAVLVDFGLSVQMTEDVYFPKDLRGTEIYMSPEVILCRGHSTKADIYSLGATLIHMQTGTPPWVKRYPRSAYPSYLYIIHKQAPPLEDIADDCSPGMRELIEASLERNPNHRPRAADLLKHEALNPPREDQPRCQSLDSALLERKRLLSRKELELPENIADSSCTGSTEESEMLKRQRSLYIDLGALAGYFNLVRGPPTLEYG

[10] = target: Mitogen-activated protein kinase kinase kinase kinase 1 (Homo sapiens) (UniProt Q92918); test: Inhibition of HPK1 (unknown origin) at 10 uM by biochemical hotspot kinase assay
Mitogen-activated protein kinase kinase kinase kinase 1 (Homo sapiens), sequence (Q92918 whole entry, looked up): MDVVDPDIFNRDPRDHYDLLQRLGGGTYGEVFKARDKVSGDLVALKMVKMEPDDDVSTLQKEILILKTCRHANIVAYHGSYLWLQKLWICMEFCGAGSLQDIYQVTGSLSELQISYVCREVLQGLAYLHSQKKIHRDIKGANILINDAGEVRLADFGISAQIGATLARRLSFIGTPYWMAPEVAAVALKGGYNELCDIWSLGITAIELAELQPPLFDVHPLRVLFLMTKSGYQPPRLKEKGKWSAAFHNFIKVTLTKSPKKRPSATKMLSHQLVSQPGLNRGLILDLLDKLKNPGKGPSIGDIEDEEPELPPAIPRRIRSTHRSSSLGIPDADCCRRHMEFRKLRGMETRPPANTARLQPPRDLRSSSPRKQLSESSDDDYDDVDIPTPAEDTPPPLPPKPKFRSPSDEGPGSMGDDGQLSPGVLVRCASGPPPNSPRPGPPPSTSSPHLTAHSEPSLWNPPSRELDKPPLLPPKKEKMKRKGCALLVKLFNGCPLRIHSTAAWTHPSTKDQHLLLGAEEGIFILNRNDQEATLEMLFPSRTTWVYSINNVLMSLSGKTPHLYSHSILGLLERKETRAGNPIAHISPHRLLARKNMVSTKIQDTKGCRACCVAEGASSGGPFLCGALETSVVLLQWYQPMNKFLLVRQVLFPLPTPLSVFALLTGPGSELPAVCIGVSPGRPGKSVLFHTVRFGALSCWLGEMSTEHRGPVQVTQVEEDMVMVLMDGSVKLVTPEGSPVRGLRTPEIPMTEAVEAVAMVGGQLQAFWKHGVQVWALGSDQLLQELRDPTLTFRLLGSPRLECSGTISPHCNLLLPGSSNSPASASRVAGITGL

[11] = target: Vascular endothelial growth factor receptor 2 (Homo sapiens) (UniProt P35968); test: Inhibition of VEGFR2 (unknown origin) at 10 uM by biochemical hotspot kinase assay
[12] = target: RAC-alpha serine/threonine-protein kinase (Homo sapiens) (UniProt P31749); test: Inhibition of AKT1 (unknown origin) at 10 uM by biochemical hotspot kinase assay relative to control
[13] = target: cAMP-dependent protein kinase (PKA) (Homo sapiens) (UniProt P22694+P17612+P22612); test: Inhibition of PKA (unknown origin) at 10 uM by biochemical hotspot kinase assay; assay type: protein assay
[14] = target: Vascular endothelial growth factor receptor 1 (Homo sapiens) (UniProt P17948); test: Inhibition of VEGFR1 (unknown origin) at 10 uM by biochemical hotspot kinase assay relative to control
HOP-92 = test: Antiproliferative activity against human HOP-92 cells assessed as cell growth inhibition at 10 uM by SRB assay; assay type: functional, cell-based
[15] = target: Tyrosine-protein kinase BTK (Homo sapiens) (UniProt Q06187); test: Inhibition of BTK (unknown origin) at 10 uM by biochemical hotspot kinase assay relative to control
[16] = target: Receptor-type tyrosine-protein kinase FLT3 (Homo sapiens) (UniProt P36888); test: Inhibition of FLT3 (unknown origin) at 10 uM by biochemical hotspot kinase assay relative to control
A549 [17] = test: Antiproliferative activity against human A549 cells assessed as cell growth inhibition at 10 uM by SRB assay; assay type: functional, cell-based
[18] = target: Death-associated protein kinase 3 (Homo sapiens) (UniProt O43293); test: Inhibition of DAPK3 (unknown origin) at 10 uM by biochemical hotspot kinase assay
[19] = target: Tyrosine-protein kinase Lck (Homo sapiens) (UniProt P06239); test: Inhibition of LCK (unknown origin) at 10 uM by biochemical hotspot kinase assay relative to control
NCI-H522 [20] = test: Antiproliferative activity against human NCI-H522 cells assessed as cell growth inhibition at 10 uM by SRB assay; assay type: functional, cell-based
NCI-H522 [21] = test: Antiproliferative activity against human NCI-H522 cells assessed as cell growth inhibition at 10 uM by SRB assay relative to control; assay type: functional
A498 = test: Antiproliferative activity against human A498 cells assessed as inhibition of cell growth at 10 uM by SRB assay relative to control; assay type: functional
HCC 2998 = test: Antiproliferative activity against human HCC 2998 cells assessed as cell growth inhibition at 10 uM by SRB assay; assay type: functional, cell-based
RXF 393 = test: Antiproliferative activity against human RXF 393 cells assessed as inhibition of cell growth at 10 uM by SRB assay relative to control; assay type: functional
OVCAR-5 = test: Antiproliferative activity against human OVCAR-5 cells assessed as inhibition of cell growth at 10 uM by SRB assay relative to control; assay type: functional
[22] = target: Homeodomain-interacting protein kinase 1 (Homo sapiens) (UniProt Q86Z02); test: Inhibition of HIPK1 (unknown origin) at 10 uM by biochemical hotspot kinase assay
MDA-MB-435 = test: Antiproliferative activity against human MDA-MB-435 cells assessed as cell growth inhibition at 10 uM by SRB assay relative to control; assay type: functional
[23] = target: Serine/threonine-protein kinase PAK 1 (Homo sapiens) (UniProt Q13153); test: Inhibition of PAK1 (unknown origin) at 10 uM by biochemical hotspot kinase assay
[24] = target: Serine/threonine-protein kinase PLK2 (Homo sapiens) (UniProt Q9NYY3); test: Inhibition of PLK2 (unknown origin) at 10 uM by biochemical hotspot kinase assay relative to control
Serine/threonine-protein kinase PLK2 (Homo sapiens), sequence (Q9NYY3 whole entry, looked up): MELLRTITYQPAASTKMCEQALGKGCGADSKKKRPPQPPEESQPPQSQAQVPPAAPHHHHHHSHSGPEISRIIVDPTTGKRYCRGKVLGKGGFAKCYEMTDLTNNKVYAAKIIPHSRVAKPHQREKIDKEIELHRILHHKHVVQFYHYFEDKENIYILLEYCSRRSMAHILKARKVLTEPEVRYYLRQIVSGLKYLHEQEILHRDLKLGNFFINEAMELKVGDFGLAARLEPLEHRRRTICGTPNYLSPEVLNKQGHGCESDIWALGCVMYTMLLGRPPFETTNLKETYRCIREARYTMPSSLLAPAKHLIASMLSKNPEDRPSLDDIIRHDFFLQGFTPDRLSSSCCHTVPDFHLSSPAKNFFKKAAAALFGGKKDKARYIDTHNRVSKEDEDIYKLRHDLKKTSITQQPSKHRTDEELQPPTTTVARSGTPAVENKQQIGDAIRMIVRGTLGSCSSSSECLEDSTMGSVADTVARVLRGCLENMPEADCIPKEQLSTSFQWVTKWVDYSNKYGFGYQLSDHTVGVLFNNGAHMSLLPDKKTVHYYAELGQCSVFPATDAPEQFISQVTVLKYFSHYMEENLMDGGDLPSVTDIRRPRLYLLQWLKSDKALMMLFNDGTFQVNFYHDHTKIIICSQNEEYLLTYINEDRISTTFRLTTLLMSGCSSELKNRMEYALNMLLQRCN

[25] = target: Platelet-derived growth factor receptor alpha (Homo sapiens) (UniProt P16234); test: Inhibition of PDGFRa (unknown origin) at 10 uM by biochemical hotspot kinase assay
[26] = target: Aurora kinase A (Homo sapiens) (UniProt O14965); test: Inhibition of Aurora A (unknown origin) at 10 uM by biochemical hotspot kinase assay
Aurora kinase A (Homo sapiens), sequence (O14965 whole entry): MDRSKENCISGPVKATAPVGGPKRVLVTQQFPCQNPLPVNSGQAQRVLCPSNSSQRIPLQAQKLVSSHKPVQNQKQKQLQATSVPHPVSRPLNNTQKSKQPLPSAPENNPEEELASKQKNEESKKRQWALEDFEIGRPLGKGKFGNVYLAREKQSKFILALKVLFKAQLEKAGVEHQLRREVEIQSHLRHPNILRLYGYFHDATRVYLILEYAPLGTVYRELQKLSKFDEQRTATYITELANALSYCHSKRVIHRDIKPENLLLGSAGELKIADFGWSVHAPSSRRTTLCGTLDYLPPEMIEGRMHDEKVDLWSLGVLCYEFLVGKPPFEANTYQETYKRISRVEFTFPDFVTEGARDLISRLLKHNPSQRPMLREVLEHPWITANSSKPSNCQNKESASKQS

HCT-116 = test: Antiproliferative activity against human HCT-116 cells assessed as cell growth inhibition at 10 uM by SRB assay; assay type: functional, cell-based
HT-29 [27] = test: Antiproliferative activity against human HT-29 cells assessed as cell growth inhibition by SRB assay; assay type: functional
SK-OV-3 = test: Antiproliferative activity against human SK-OV-3 cells assessed as inhibition of cell growth at 10 uM by SRB assay relative to control; assay type: functional
HOP-62 = test: Antiproliferative activity against human HOP-62 cells assessed as cell growth inhibition at 10 uM by SRB assay relative to control; assay type: functional
A549 [28] = test: Antiproliferative activity against human A549 cells assessed as cell growth inhibition at 10 uM by SRB assay relative to control; assay type: functional
NCI-H226 = test: Antiproliferative activity against human NCI-H226 cells assessed as cell growth inhibition at 10 uM by SRB assay relative to control; assay type: functional; settings: pooled result: one value given for 4 cell lines, strains, targets or settings

inhibition [2]: 6.26% | inhibition [3]: 3.24% | inhibition [5]: 0.46% | inhibition [6]: 8.65% | inhibition [8]: inactive | inhibition [9]: 3.13% | inhibition [10]: inactive | inhibition [11]: inactive | inhibition [12]: 2.36% | inhibition [13]: inactive | inhibition [14]: 14.9% | inhibition [15]: 9.9% | inhibition [16]: 10.7% | inhibition [19]: 0.68% | inhibition [22]: inactive | inhibition [23]: inactive | inhibition [24]: 10.5% | inhibition [25]: inactive | inhibition [26]: inactive | GI50 (HT-29 [27]): 2.55 µM
Structure (SMILES): COc1cc2oc(-c3cccc(C(=O)Nc4ccc(C)cc4)c3)cc(=O)c2c(OC)c1OC
inhibition [1]: 0.74% | inhibition [4]: inactive | Activity (HT-29 [7]): 55.4% | inhibition at 10 µM (CAKI-1): 97.8% | inhibition (HOP-92): Active | inhibition (A549 [17]): Active | inhibition [18]: inactive | inhibition (NCI-H522 [20]): Active | inhibition at 10 µM (NCI-H522 [21]): 93.3% | inhibition at 10 µM (A498): 94% | inhibition (HCC 2998): Active | inhibition (RXF 393): Active | inhibition at 10 µM (OVCAR-5): 51.8% | inhibition at 10 µM (MDA-MB-435): 70.1% | inhibition (HCT-116): Active

Structure (SMILES): COc1cc2oc(-c3cccc(C(=O)Nc4ccc(Cl)cc4)c3)cc(=O)c2c(OC)c1OC
inhibition at 10 µM (CAKI-1): 91.8% | inhibition (HOP-92): Active | inhibition at 10 µM (SK-OV-3): 56.9% | inhibition (A549 [17]): Active | inhibition (NCI-H522 [20]): Active | inhibition at 10 µM (NCI-H522 [21]): 74.8% | inhibition (HCC 2998): Active | inhibition at 10 µM (RXF 393): 129% | inhibition at 10 µM (HOP-62): 87.2% | inhibition at 10 µM (A549 [28]): 74.8% | inhibition at 10 µM (NCI-H226): 51.8% | inhibition at 10 µM (MDA-MB-435): 62.5% | inhibition (HCT-116): Active
